Laboratory results reported in US20060106099A1, “Novel inhibitors of ubiquitin isopeptidases” (priority 2002, published 2006).

How the values were obtained:
[1] = test system: ubiquitin isopeptidases; experiment: Ubiquitin isopeptidase activity, Ub-PEST substrate, lysates of treated RKO and HCT 116 cells; type: cell-based, human; settings: cells treated 6, 20 or 60 μM, 12 h
Method in brief: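 RKO and HCT 116 cells (6×10^5) were treated with 0–60 μM compound for 12 h at 37 °C, then lysed in HEPES/EDTA/CHAPS/5 mM ATP, pH 7.5. Lysates at 0.3 mg/mL protein were incubated with 50 μg/mL Ub-PEST for 45 min at 25 °C. Released 8.5 kDa ubiquitin was quantified by anti-ubiquitin western blot densitometry relative to vehicle (100%).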

[2] = test system: ubiquitin isopeptidases; experiment: Ubiquitin isopeptidase activity, z-LRGG-AMC substrate, lysates of treated RKO and HCT 116 cells; type: cell-based, human; settings: cells treated 6, 20 or 60 μM, 12 h
Method in brief: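 RKO and HCT 116 cells were treated 12 h at 37° C with 6, 20 or 60 μM compound. Lysates at 0.5 mg/mL were pre-incubated with 30 μM MG115 (30 min, 4° C) to block proteasome, then given z-LRGG-AMC for 3 h at 37° C. Cleaved AMC was read fluorometrically.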

[3] = test system: polyubiquitin conjugates in RKO-E6 cells; experiment: Accumulation of polyubiquitin in RKO-E6 cells (immunoblot); type: cell-based, human; settings: EC80 or 60 μM, 6-24 h
Method in brief: (§1)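 RKO-E6 cells exposed at 37° C for 6, 12 or 24 h to compound concentrations giving 80% cell death at 48 h; for p53, RKO and RKO-E6 cells treated 6 h. Lysates (12.5 μg protein) immunoblotted for ubiquitin or p53 with ECL detection; p53 quantified by densitometry as RKO-E6/RKO ratio.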

[4] = test system: p53; experiment: p53 accumulation, ratio RKO-E6 cells/RKO cells (immunoblot, densitometry); type: cell-based, human; settings: 6 h; etoposide 50 μM, MG115, NSC-302979, DBA 20 μM, others 60 μM
Method in brief: as §1

[5] = test system: RKO-E6 cells
[6] = test system: cell lines with mutant/deleted p53; settings: mean of 41-42 cell lines with mutant/deleted p53; read-out: Mutant p53 Mean LC50; cited from earlier work
[7] = test system: RKO cells; experiment: MTT cell viability assay, RKO cells; settings: for cell death in RKO compared with RKO-E6 cells: 48 h, MTT, isogenic pair
[8] = test system: RKO-E6 cells; experiment: MTT cell viability assay, RKO-E6 cells; settings: cell viability assay at 48 h, RKO-E6 cells
[9] = test system: HCT 116 +/+ cells; experiment: MTT cell viability assay, HCT 116 p53 +/+ cells; settings: 48 h, MTT; for cell death in HCT 116 +/+ compared with HCT 116 −/− cells: isogenic pair
Experimental: Cell viability was measured with MTT reagent as described in materials and methods.
Cell viability was detected by the MTT assay. Briefly, 1×10^5 cells were incubated per well of a sterile, 96-well assay plate with 0-60 μM of test compounds for 48 hours. MTT reagent was added to each well, final concentration of 0.5 mg/mL, and incubated for an additional 3 hours. The media was aspirated and remaining MTT reagent from each well and added 100 μL of HCl:isopropanol (1:24). The absorbance of each sample was measured at 405 nm.

[10] = test system: ubiquitin isopeptidases; settings: cells treated for 12 h; cited from earlier work
[11] = cited from earlier work

With `C=C1C(=O)C2=CC1CCC(=O)C1(C)CCC(OC(C)=O)C(C)(C)C1CC2O` (stereo not drawn) [NSC-302979, shikoccin] the “inhibition of isopeptidase cleavage of Ub-PEST” value [1] was “inhibited isopeptidase activity in a concentration dependent manner”, the “inhibition of z-LRGG-AMC hydrolysis by ubiquitin isopeptidases” value [2] was “inhibited ubiquitin isopeptidase activity” and the “cellular accumulation of polyubiquitin conjugates” value [3] was “protein species with polyubiquitin conjugation accumulated in cells”. For the same compound, the “ratio of p53 protein [RKO-E6 cells/RKO cells]” value [4] was “approached unity”, the EC50 [5] was 1.4 ± 0.1 µM and the CC50 [6] was 66 µM. The “cell death in RKO compared with RKO-E6 cells” value [7] was “caused cell death with equal potency and efficacy”, the “EC80, concentration that gave 80% cell death” value [8] was 3.5 µM and the “cell death in HCT 116 +/+ compared with HCT 116 −/− cells” value [9] was “caused cell death with equal potency”. For the same compound, the EC50 ([9]; read-out: Cytotoxic Potency (EC50) HCT +/+) was 2.7 ± 0.2 µM.

In the case of `CCCCC[C@H](O)C/C=C1/C(=O)C=C[C@@H]1C/C=C\CCCC(=O)O` [Δ12-PGJ2, Δ12-prostaglandin J2], the “inhibition of isopeptidase cleavage of Ub-PEST” value [1] is reported as “inhibited isopeptidase activity in a concentration dependent manner”, the “inhibition of z-LRGG-AMC hydrolysis by ubiquitin isopeptidases” value [2] is reported as “inhibited ubiquitin isopeptidase activity” and the “cellular accumulation of polyubiquitin conjugates” value [3] is reported as “protein species with polyubiquitin conjugation accumulated in cells”. The “ratio of p53 protein [RKO-E6 cells/RKO cells]” value [4] was “approached unity”, the EC50 [5] was 9.2 ± 1 µM and the “concentration showing inhibition of Ub-PEST degradation, previous in vivo studies” value [10] was 60 µM. The “t1/2 of metabolism to an inactive compound in serum” value [11] was under 5 min, the “cell death in RKO compared with RKO-E6 cells” value [7] was “caused cell death with equal potency and efficacy” and the EC50 ([7]; read-out: EC50 in RKO cell lines, prostaglandins for comparison, comparison values in the text) was 9 µM. The “EC80, concentration that gave 80% cell death” value [8] was 13.2 µM and the “cell death in HCT 116 +/+ compared with HCT 116 −/− cells” value [9] was “caused cell death with equal potency”.
